Reference: US20160015730A1, “Treatment of Pulmonary Hypertension with Carbonic Anhydrase Inhibitors” (priority 2007, published 2016)

Columns and labels:
[1] = system: patients exhibiting similar symptoms with respect to pulmonary hypertension; experiment: Examples 12-17: procedures of Examples 2 through 5 repeated with zonisamide or acetazolamide substituted for topiramate; type: in vivo, human
[2] = system: patient exhibiting similar symptoms with respect to pulmonary hypertension; experiment: Examples 6-11: procedure of Example 1 repeated with zonisamide or acetazolamide substituted for topiramate; type: in vivo, human
[3] = target: Type V phosphodiesterase (Homo sapiens, UniProt O76074); settings: comparison with avanafil (and sildenafil); cited from earlier work
[4] = system: patient with elevated pulmonary artery pressure (pulmonary hypertension); experiment: Example 1 case report: patient with mildly elevated pulmonary artery pressure treated with bupropion and topiramate; type: in vivo, human
Protocol: They were 66″ tall, weight 282 lbs, BMI 46, initial BP 118/80. They had 2+ edema of both ankles, clear lungs, and a systolic murmur along the left sternal border, grade II/VI.
They were started on atorvastatin 10 mg daily as well as bupropion 150 mg daily and topiramate 200 mg daily along with a low fat, low carbohydrate diet and exercise. […] They lost weight continuously on the program and 4 months later had lost 20 lbs. […] After six months, the patient temporarily discontinued the medications. Within a few days, even though their weight was the same, their chest pressure and shortness of breath on exertion returned. On resumption of the treatment, the symptoms resolved within a few days.

[5] = system: patient with pulmonary hypertension; experiment: Example 5 case report: patient with COPD and pulmonary hypertension treated with phentermine and topiramate; type: in vivo, human; settings: topiramate 100 mg daily with phentermine 15 mg daily
Protocol: The fifth patient was a person with obesity, diabetes, hypertension, hypothyroidism, elevated cholesterol, COPD, and pulmonary hypertension. […] They had stopped smoking 1PPD about 10 years previously. Their baseline medications were verapamil 240 mg daily, losartan-HCTZ 50-12.5 daily, levothyroxine 0.125 mg daily, Pulmicort […] 2 puffs twice daily, Foradil powder […] twice daily, metformin 500 mg twice daily, atorvastatin 10 mg daily, fluticasone nasal spray 50 mcg 2 puffs daily and vitamins. They were short of breath with minimal exertion. They were 67″ tall, weight 228 lbs, BMI 36, initial BP 138/70.
They were treated with phentermine 15 mg daily and topiramate 100 mg daily. Three years into treatment, their fasting glucose is 106 off metformin compared with 114 on metformin at baseline, their blood pressure is 115/60 on valsartan 80 mg daily and diltiazem CD 120 mg daily (changed from verapamil because of constipation). Their weight has been stable for six months in the low 180's.

[6] = system: patient with pulmonary hypertension; experiment: Example 2 case report: patient with pulmonary hypertension treated with phentermine and topiramate; type: in vivo, human; settings: topiramate 200 mg daily with phentermine 15 mg daily
Protocol: The second patient was a person with obesity, hypothyroidism, hypertension, valvular heart disease, elevated cholesterol and depression. Their medications were levothyroxine 50 mcg daily, metoprolol 50 mg daily, venlafaxine 37.5 mg daily, progesterone 100 mg daily, esterified estrogens 1.25 mg daily, and methyltestosterone 2.5 mg daily. They were 63″ tall, weight 178 lbs, BMI 32, initial BP 120/78. They had trace edema of both ankles and a systolic murmur of I/VI along the left sternal border. […] A comment on the report stated that this was a slight increase in pulmonary pressure compared with an echocardiogram taken seven months earlier.
They were treated with phentermine 15 mg daily and topiramate 200 mg daily along with a low fat, low carbohydrate diet and exercise. Metoprolol was discontinued after four months due to low blood pressure. Eight months after treatment started, their weight was 165 lbs, BP was 122/76, and they had no edema. […] No MR was seen.

[7] = system: patients with pulmonary hypertension; experiment: Summary of the five patients of Examples 1-5; type: in vivo, human
Text: However, the improvement in pulmonary pressures appeared to be independent of weight loss in these patients.

[8] = system: patient with known pulmonary hypertension; experiment: Example 4 case report: patient with known pulmonary hypertension and sleep apnea treated with bupropion, topiramate and phentermine; type: in vivo, human; settings: topiramate 100 mg daily with bupropion 300 mg
Protocol: The fourth patient was a person with obesity, sleep apnea on CPAP, known pulmonary hypertension with PA pressure estimated at 76 mm Hg by echocardiogram, valvular heart disease (mild-moderate tricuspid and mitral regurgitation), depression and hypertension. They smoked just under half pack of cigarettes per day and was a CO2 retainer by ABG's with a PCO2 of 54 mm Hg on room air. They were short of breath with minimal exertion. Their baseline medications were furosemide 80 mg daily, potassium chloride 20 mEq daily, lisinopril 10 mg daily, carvedilol 25 mg BID, escitalopram 10 mg daily, alprazolam 0.5 mg TID, and nightly oxygen. They were 68″ tall, weight 284 lbs, BMI 43½, initial BP 122/76. They had 1+ edema of both lower legs and was short of breath on exertion.
They were treated with aspirin 81 mg coated daily, bupropion 300 mg daily, topiramate 100 mg daily, phentermine 5 mg daily, along with a low fat, low carbohydrate diet and light exercise. By the first 4 weeks of follow-up, they had lost 17 lbs and was breathing much better. […] They were still smoking cigarettes occasionally. They had lost 38 lbs. Their blood pressure was 110/70 on only lisinopril 10 mg daily. Furosemide and carvedilol had been gradually discontinued due to improved edema, blood pressure, and breathing. An echocardiogram performed at three months into the program was mostly unchanged from their prior echocardiogram except that the pulmonary artery pressure was reported as normal. This change was consistent with their clinical picture.

[9] = system: patient with probable mild pulmonary hypertension; experiment: Example 3 case report: patient with probable mild pulmonary hypertension treated with phentermine and topiramate; type: in vivo, human
Protocol: The third patient was a person with obesity, hypertension, elevated cholesterol, heart murmur and dyspnea on exertion. Their medications were atorvastatin 10 mg daily, captopril 12.5 mg daily, trazodone 50 mg daily, spironolactone 50 mg daily, and bupropion 150 mg daily. They were 64″ tall, weight 319 lbs, BMI 55, initial BP 148/76.
They were treated with phentermine 15 mg daily and topiramate 200 mg daily along with a low fat, low carbohydrate diet and exercise. They were instructed to stop both the spironolactone and captopril since this weight loss treatment results in marked lowering of blood pressure in most patients. […] Blood pressure one week later was 140/86 and weight 317 lbs.

CC(=O)Nc1nnc(S(N)(=O)=O)s1 [acetazolamide]
results relative to Examples 2 through 5 ([1]; 100 mg, 250 mg, and 500 mg acetazolamide substituted for topiramate): Substantially the same results
results relative to Example 1 ([2]; Example 9, 100 mg acetazolamide substituted for the topiramate): Substantially the same results
results relative to Example 1 ([2]; Example 10, 250 mg acetazolamide substituted for the topiramate): Substantially the same results
results relative to Example 1 ([2]; Example 11, 500 mg acetazolamide substituted for the topiramate): Substantially the same results

CCCc1nn(C)c2c(=O)[nH]c(-c3cc(S(=O)(=O)N4CCN(C)CC4)ccc3OCC)nc12 [sildenafil]
potency as phosphodiesterase inhibitor relative to avanafil [3]: approximately twice as potent as avanafil

CC1(C)O[C@@H]2[C@@H](CO[C@@]3(COS(N)(=O)=O)OC(C)(C)O[C@@H]23)O1 [topiramate]
chest pressure and shortness of breath on exertion after discontinuing the medications ([4]; medications temporarily discontinued after six months, within a few days, weight the same): returned
exercise tolerance ([4]; person, topiramate 200 mg daily with bupropion 150 mg daily, atorvastatin 10 mg daily, diet and exercise, two weeks after start): markedly improved
symptoms on resumption of the treatment ([4]; resumption of topiramate 200 mg/bupropion 150 mg treatment, within a few days): resolved
chest pressure and shortness of breath on exertion ([4]; topiramate 200 mg daily with bupropion 150 mg daily, atorvastatin 10 mg daily, two weeks after start): gone
weight lost ([4]; topiramate 200 mg daily with bupropion 150 mg daily, atorvastatin, diet and exercise, 4 months, baseline 282 lbs): 20 lbs
pulmonary pressures (echocardiogram) ([4]; topiramate 200 mg daily with bupropion 150 mg daily, 2 weeks after start of treatment, baseline 36 mm Hg): normal
fasting glucose ([5]; person, three years, off metformin, baseline 114 on metformin): 106
pulmonary pressures (echocardiogram) ([5]; 30 months into treatment, baseline 45-50 mm Hg): normal
symptoms ([5]; exercising more without shortness of breath): symptomatically much better
weight ([5]; three years, stable for six months, baseline 228 lbs): low 180's
blood pressure ([5]; three years, on valsartan 80 mg and diltiazem CD 120 mg daily, baseline 138/70): 115/60
weight ([6]; person, diet and exercise, eight months, baseline 178 lbs): 165 lbs
edema ([6]; eight months, baseline trace edema of both ankles): no edema
BP ([6]; eight months, metoprolol discontinued, baseline 120/78): 122/76
pulmonary artery pressure (echocardiogram) ([6]; nine months on treatment, baseline 39 mm Hg): 33 mm Hg
mitral regurgitation (MR, echocardiogram) ([6]; nine months on treatment, baseline mild MR): No MR
tricuspid regurgitation (echocardiogram) ([6]; nine months on treatment, baseline moderate TR): mild
symptomatic improvement ([7]; all patients): symptomatic improvement in all patients
improvement in pulmonary hypertension ([7]; topiramate with phentermine and/or bupropion, diet and weight loss program): surprising improvement
weight lost ([8]; person, phentermine 5 mg, aspirin 81 mg daily, diet, light exercise, first 4 weeks, baseline 284 lbs): 17 lbs
blood pressure ([8]; phentermine 5 mg daily, four months, on only lisinopril 10 mg daily, baseline 122/76): 110/70
pulmonary artery pressure (echocardiogram) ([8]; phentermine 5 mg daily, three months, baseline estimated 76 mm Hg): normal
breathing ([8]; phentermine 5 mg, aspirin 81 mg daily, first 4 weeks): much better
weight lost ([8]; phentermine 5 mg, aspirin 81 mg daily, four months): 38 lbs
clinical status ([8]; phentermine 5 mg, aspirin 81 mg daily, four months, able to exercise normally without shortness of breath): clinically markedly improved
echocardiogram findings of pulmonary hypertension ([9]; person, topiramate 200 mg daily with phentermine 15 mg daily (bupropion 150 mg daily at baseline), three weeks, before significant weight loss, baseline probable mild pulmonary hypertension): no findings of pulmonary hypertension
weight ([9]; topiramate 200 mg daily with phentermine 15 mg daily, four weeks, baseline 319 lbs): 317 lbs
blood pressure ([9]; topiramate 200 mg daily with phentermine 15 mg daily, four weeks, spironolactone and captopril stopped, baseline 148/76): 140/86

NS(=O)(=O)Cc1noc2ccccc12 [zonisamide]
results relative to Examples 2 through 5 ([1]; 25 mg, 50 mg, and 100 mg zonisamide substituted for topiramate): Substantially the same results
results relative to Example 1 ([2]; Example 6, 25 mg zonisamide substituted for the topiramate): Substantially the same results
results relative to Example 1 ([2]; Example 7, 50 mg zonisamide substituted for the topiramate): Substantially the same results
results relative to Example 1 ([2]; Example 8, 100 mg zonisamide substituted for the topiramate): Substantially the same results
